Laboratory results published in ChEMBL document CHEMBL1143561, “Virtual docking approaches to protein kinase B inhibition” (J Med Chem, 2005).

Molecular target: RAC-alpha serine/threonine-protein kinase (Homo sapiens, UniProt P31749)
Assay: Inhibition of protein kinase B alpha (Akt1) in fluorescent enzymatic assay

Sequence of RAC-alpha serine/threonine-protein kinase (P31749 whole entry): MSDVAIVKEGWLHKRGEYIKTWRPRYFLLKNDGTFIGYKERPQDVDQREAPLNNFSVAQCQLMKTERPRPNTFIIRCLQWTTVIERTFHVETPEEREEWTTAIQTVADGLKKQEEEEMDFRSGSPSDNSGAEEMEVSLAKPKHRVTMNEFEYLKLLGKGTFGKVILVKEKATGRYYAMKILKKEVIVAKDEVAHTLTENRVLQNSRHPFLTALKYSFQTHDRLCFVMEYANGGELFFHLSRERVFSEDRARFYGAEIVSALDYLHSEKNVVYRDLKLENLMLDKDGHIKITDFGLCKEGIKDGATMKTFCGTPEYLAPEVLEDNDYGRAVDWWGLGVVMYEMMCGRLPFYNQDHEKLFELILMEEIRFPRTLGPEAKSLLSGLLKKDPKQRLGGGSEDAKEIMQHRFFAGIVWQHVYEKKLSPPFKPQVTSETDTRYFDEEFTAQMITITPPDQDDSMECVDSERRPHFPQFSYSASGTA

Q: For CC1=C(C#N)c2nc(N)c(C#N)c(C)c2/C1=C/c1ccc(-c2cccc(C(=O)O)c2)o1, which IC50 is on record?
A: 60.2 µM
